Reference: patent publication US20120329826A1, “SUBSTITUTED-5-AMINOPYRROLO/PYRAZOLOPYRIDINES” (OSI Pharmaceuticals,. LLC, priority 2010, published 2012)
Counter-ions that a name gives are not always drawn.

Assays:
RON (human) = RON (human) (Homo sapiens, UniProt Q04912); test: RON (human)-Km of ATP AlphaScreen kinase assay; conditions: biochemical, ATP at Km
Protocol: RON (human)-Km of ATP: RON assay is performed in a 384 well assay containing 200 ng/μL biotinylated poly(Glu, Tyr), 0.334 mM vanadate, desired concentration of ATP optimized for the enzyme in assay buffer (50 mM HEPES (pH=7.4), 12.5 mM MgCl2 and 1% glycerol). Desired compound is added in a final concentration of 1% DMSO with control being vehicle of DMSO alone. RON is diluted to the optimized (on a lot-by-lot basis) concentration in an enzyme diluent buffer (50 mM HEPES pH=7.4, 12.5 mM MgCl2 and 1% glycerol, 0.03% Brij35, 0.3 mM EGTA, 1 mM DTT, and 0.003% BSA). Enzyme is added to initiate the reaction and incubated for 30 min at RT. In subdued light, appropriate amount of PT66 donor and acceptor beads (diluted 1:260 from manufacturer's provision in a 25 mM Tris HCl (pH=7.5), 200 mM NaCl, 100 mM EDTA, 0.3% BSA buffer) are added to the wells. The plates, incubated for 1 h, are read on an AlphaQuest plate reader.

MET (human) = MET (human) (Homo sapiens, UniProt P08581); test: MET (human)-Km of ATP AlphaScreen kinase assay; conditions: biochemical, ATP at Km
Protocol: MET (human)-Km of ATP: MET assay is performed in a 384 well assay containing 200 ng/μL biotinylated poly(Glu, Tyr), 0.334 mM vanadate, desired concentration of ATP optimized for the enzyme in assay buffer (50 mM HEPES (pH=7.4), 5 mM MgCl2, 5 mM MnCl2, and 1% glycerol). Desired compound is added in a final concentration of 1% DMSO with control being vehicle of DMSO alone. MET is diluted to the optimized concentration (optimized on a lot-by-lot basis) in an enzyme diluent buffer (50 mM Tris pH=7.4, 1% glycerol, 0.03% Brij35, 0.24 mM EGTA, 1 mM DTT, and 0.003% BSA). Enzyme is added to initiate the reaction and incubated for 60 min at RT. In subdued light, appropriate amount of PT66 donor and acceptor beads (diluted 1:260 from manufacturer's provision in a 25 mM Tris HCl (pH=7.5), 400 mM NaCl, 100 mM EDTA, 0.3% BSA buffer) are added to the wells. The plates, incubated for 1 h, are read on an AlphaQuest plate reader

Chain of MET (human) (P08581 25-1390): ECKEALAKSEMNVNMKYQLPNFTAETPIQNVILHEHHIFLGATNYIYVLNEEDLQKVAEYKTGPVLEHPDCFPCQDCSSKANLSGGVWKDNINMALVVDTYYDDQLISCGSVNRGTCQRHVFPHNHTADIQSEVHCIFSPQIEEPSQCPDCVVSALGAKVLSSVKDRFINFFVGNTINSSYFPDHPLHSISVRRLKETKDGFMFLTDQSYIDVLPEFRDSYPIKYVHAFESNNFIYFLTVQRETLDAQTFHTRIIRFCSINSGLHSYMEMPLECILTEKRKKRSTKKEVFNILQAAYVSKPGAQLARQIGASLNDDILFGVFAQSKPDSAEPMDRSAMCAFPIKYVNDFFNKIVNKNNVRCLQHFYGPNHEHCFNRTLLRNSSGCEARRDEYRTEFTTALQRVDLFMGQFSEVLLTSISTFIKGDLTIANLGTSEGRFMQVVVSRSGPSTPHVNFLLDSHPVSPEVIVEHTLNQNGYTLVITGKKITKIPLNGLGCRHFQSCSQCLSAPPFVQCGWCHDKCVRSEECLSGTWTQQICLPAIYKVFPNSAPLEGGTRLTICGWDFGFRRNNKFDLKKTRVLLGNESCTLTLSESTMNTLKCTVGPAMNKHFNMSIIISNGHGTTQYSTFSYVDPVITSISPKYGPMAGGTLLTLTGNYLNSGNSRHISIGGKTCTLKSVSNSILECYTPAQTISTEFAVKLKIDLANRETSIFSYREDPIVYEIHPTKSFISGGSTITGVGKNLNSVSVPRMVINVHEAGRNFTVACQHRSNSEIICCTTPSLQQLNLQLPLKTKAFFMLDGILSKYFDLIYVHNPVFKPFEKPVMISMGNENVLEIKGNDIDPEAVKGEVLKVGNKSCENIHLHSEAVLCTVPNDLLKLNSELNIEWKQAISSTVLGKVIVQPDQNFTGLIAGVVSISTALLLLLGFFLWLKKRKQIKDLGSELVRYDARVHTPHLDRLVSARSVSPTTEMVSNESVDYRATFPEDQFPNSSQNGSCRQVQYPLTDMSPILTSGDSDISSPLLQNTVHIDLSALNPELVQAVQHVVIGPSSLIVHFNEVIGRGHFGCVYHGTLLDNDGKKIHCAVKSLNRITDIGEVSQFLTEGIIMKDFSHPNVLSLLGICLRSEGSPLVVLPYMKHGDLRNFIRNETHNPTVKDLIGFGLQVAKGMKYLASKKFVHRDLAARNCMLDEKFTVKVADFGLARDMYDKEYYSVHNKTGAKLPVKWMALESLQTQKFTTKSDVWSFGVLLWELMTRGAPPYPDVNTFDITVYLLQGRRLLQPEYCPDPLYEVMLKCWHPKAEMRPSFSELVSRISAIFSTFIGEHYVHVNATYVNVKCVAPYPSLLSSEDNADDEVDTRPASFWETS
Chain of RON (human) (Q04912 25-1400): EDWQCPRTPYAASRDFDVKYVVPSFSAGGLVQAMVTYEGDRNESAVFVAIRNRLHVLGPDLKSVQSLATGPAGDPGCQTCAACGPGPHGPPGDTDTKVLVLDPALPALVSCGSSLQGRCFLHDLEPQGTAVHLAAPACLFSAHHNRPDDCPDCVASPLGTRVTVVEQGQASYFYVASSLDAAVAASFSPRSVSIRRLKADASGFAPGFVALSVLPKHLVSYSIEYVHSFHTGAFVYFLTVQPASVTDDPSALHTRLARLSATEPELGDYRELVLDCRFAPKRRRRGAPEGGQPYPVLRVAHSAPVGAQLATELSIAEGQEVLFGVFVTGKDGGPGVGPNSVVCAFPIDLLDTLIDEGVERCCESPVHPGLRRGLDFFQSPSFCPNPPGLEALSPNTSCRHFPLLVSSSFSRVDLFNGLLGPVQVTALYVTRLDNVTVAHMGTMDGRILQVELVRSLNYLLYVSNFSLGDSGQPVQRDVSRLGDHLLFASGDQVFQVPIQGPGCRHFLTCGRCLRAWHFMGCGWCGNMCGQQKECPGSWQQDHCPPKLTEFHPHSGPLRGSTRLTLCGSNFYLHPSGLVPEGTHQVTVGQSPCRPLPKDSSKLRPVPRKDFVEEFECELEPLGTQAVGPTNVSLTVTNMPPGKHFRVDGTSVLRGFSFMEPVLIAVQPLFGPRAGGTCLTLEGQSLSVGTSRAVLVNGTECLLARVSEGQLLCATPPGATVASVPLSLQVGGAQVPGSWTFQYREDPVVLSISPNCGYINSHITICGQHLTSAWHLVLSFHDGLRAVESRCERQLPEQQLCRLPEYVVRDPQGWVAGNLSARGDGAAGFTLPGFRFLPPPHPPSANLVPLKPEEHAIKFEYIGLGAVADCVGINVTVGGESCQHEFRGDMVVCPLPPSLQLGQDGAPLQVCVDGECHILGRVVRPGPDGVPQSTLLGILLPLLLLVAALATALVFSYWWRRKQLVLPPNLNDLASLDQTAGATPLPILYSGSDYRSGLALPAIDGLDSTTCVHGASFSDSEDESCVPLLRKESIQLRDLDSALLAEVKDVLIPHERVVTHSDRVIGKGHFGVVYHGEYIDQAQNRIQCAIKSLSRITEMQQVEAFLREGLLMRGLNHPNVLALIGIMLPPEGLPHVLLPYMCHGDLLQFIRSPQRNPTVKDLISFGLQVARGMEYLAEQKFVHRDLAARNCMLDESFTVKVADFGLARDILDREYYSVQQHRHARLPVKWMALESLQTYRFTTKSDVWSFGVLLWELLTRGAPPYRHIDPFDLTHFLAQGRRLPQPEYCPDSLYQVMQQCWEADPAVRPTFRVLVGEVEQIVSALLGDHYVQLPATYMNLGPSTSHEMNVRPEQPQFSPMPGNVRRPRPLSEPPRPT

## C[C@@H](Oc1c(N)ncc2[nH]ccc12)c1c(Cl)ccc(F)c1Cl [Example 1, 4-[(R)-1-(2,6-Dichloro-3-fluorophenyl)ethoxy]-1H-pyrrolo[2,3-c]pyridin-5-ylamine]
RON (human)
  IC50: 5 to 20 µM
MET (human)
  IC50: 5 to 20 µM

## C[C@@H](Oc1c(N)ncc2c1ccn2C)c1c(Cl)ccc(F)c1Cl [Example 2, 4-[(R)-1-(2,6-Dichloro-3-fluorophenyl)ethoxy]-1-methyl-1H-pyrrolo[2,3-c]pyridin-5-ylamine]
RON (human)
  IC50: > 20 µM
MET (human)
  IC50: 5 to 20 µM

## C[C@@H](Oc1c(N)ncc2c1ccn2CCC1CCNCC1)c1c(Cl)ccc(F)c1Cl [Example 5, 4-[(R)-1-(2,6-Dichloro-3-fluorophenyl)ethoxy]-1-(2-piperidin-4-ylethyl)1H-pyrrolo[2,3-c]pyridin-5-ylamine bis-hydrochloride]
RON (human)
  IC50: ≤ 5 µM
MET (human)
  IC50: ≤ 5 µM

## C[C@@H](Oc1c(N)ncc2c1ccn2S(=O)(=O)c1ccccc1)c1c(Cl)ccc(F)c1Cl [Example 6, 1-Benzenesulfonyl-4-[(R)-1-(2,6-dichloro-3-fluorophenyl)ethoxy]-1H-pyrrolo[2,3-c]pyridin-5-ylamine]
RON (human)
  IC50: > 20 µM
MET (human)
  IC50: 5 to 20 µM

## Nc1ncc2[nH]ccc2c1-c1cc2ccccc2o1 [Example 7, 4-Benzofuran-2-yl-1H-pyrrolo[2,3-c]pyridin-5-ylamine]
RON (human)
  IC50: > 20 µM
MET (human)
  IC50: > 20 µM

## Nc1ncc2c(ccn2Cc2ccccc2)c1-c1cc2ccccc2o1 [Example 8, [(4-Benzofuran-2-yl)-1-benzyl-1H-pyrrolo[2,3-c]pyridin-5-yl]amine]
RON (human)
  IC50: > 20 µM

## Nc1ncc2c(ccn2CCC2CCNCC2)c1-c1cc2ccccc2o1 [Example 10, [(4-Benzofuran-2-yl)-1-(2-piperidin-4-ylethyl)-1H-pyrrolo[2,3-c]pyridin-5-yl]amine bis-hydrochloride]
RON (human)
  IC50: ≤ 5 µM
MET (human)
  IC50: ≤ 5 µM
